Test results: article PMC9738062, “Selectively Halogenated Flavonolignans—Preparation and Antibacterial Activity” (International Journal of Molecular Sciences, 2022)
Entries after “also recorded” stand apart in the source; their conditions may differ.

Columns and labels:
[1] = ABTS cation radical scavenging; conditions: vitamin C equivalent antioxidant capacity
How it was run: (§1)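 ABTS and DPPH radical scavenging gauged antiradical activity. Reducing capacity was measured as reduction of Folin–Ciocalteu reagent and of ferric ions (FRAP).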

[2] = Folin-Ciocalteu reagent reduction; conditions: gallic acid equivalents
How it was run: as §1

[3] = tested on: Vibrio campbellii BAA 1119 (AI-2); experiment: Viability of the quorum-sensing reporter culture (resazurin assay), AI-2 strain; type: cell-based; conditions: BAA1119, V. campbellii BAA 1119, resazurin assay, read-out: IC50 (concentration that halved the viability)
How it was run: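 Mutant V. campbellii strains responding only to AI-1 (BAA-1118) or AI-2 (BAA-1119), seeded at 5 × 10^5 CFU/mL in Autoinducer Bioassay medium (potassium phosphate pH 7.0); compounds at final 0.2–200 µM.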

[4] = tested on: multidrug-resistant S. aureus; experiment: Sensitization of antibiotic-resistant bacteria (compound plus breakpoint antibiotic concentration); type: cell-based, Staphylococcus aureus; conditions: for Effect on viability in combination with chloramphenicol: chloramphenicol 8 mg/L; for Effect on viability in combination with chloramphenicol / Effect on viability in combination with gentamicin: flavonoid 40 µM, 24 h; for Effect on viability in combination with gentamicin: gentamicin 1 mg/L; for Gentamicin-resistant phenotype of S. aureus (result in words): gentamicin breakpoint concentration, compound 40 µM
How it was run: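 A multidrug-resistant clinical isolate of S. aureus from the General University Hospital in Prague was grown in Mueller–Hinton broth with flavonoid derivatives combined with a EUCAST breakpoint concentration of antibiotic. MIC was determined according to ISO 20776-1: 2020, and viability was read as absorbance at A590 nm after 24 h at 37 °C and 150 rpm.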

[5] = tested on: human dermal fibroblasts (HDF); experiment: Cytotoxicity (resazurin assay, 72 h); type: cell-based; conditions: Fibroblast
How it was run: (§2)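 HDF and HOC/DOX cells in DMEM with 10% FBS were treated 24 h after seeding with 31.25–500 µM compound for 72 h at 37 °C. Viability was read by resazurin fluorescence (560/590 nm) after 2 h; IC50 came from nonlinear regression, and selectivity index = IC50(HDF)/IC50(HOC/DOX).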

[6] = tested on: doxorubicin-resistant human ovarian carcinoma (HOC/DOX); experiment: Cytotoxicity (resazurin assay, 72 h); type: cell-based; conditions: for IC50: Homo sapiens, 72 h, resazurin assay; for SI (selectivity index): ratio IC50 for HDF / IC50 for HOC/DOX
How it was run: as §2

[7] = tested on: P. aeruginosa (CCM, 3955); experiment: Inhibition of biofilm formation (surface colonization); type: cell-based; conditions: Pseudomonas aeruginosa; highest tested concentration 100 µM
Method: Biofilm formation is a fully organized, multistep process in which bacteria are constantly communicating with each other.
The activity of derivatives on biofilms was tested with S. aureus (ATCC, 25923) and P. aeruginosa (CCM, 3955), according to the previously described method. The highest tested concentration of derivatives was 100 µM. The activity was evaluated using an IC50 comparison between the parent compound and its derivative.

Q: Which results are given for COc1cc([C@H]2Oc3cc([C@H]4Oc5cc(O)cc(O)c5C(=O)[C@@H]4O)ccc3O[C@@H]2CO)ccc1O [3a, silybin A, reference compound]?
A: ABTS [CEAC] [1]: 0.50 ± 0.03 CEAC; FCR [GAE] [2]: 1.35 ± 0.06 GAE; IC50 [3]: 120 ± 3.1 µM; Effect on viability in combination with chloramphenicol [4]: -; Effect on viability in combination with gentamicin [4]: -; IC50 [5]: 109 µM; IC50 [6]: 236 µM; SI (selectivity index) [6]: 0.46; IC50 [7]: 77 µM

Q: What does the source list for COc1cc([C@@H]2Oc3cc([C@H]4Oc5c(Br)c(O)c(Br)c(O)c5C(=O)[C@@H]4O)ccc3O[C@H]2CO)ccc1O [compound 14, 6,8-dibromosilybin B]?
A: ABTS [CEAC] [1]: 0.35 ± 0.04 CEAC; FCR [GAE] [2]: 1.10 ± 0.05 GAE; IC50 [3]: 60.2 ± 3.4 µM; Effect on viability in combination with chloramphenicol [4]: -; IC50 [5]: 128 µM; IC50 [6]: 231 µM; SI (selectivity index) [6]: 0.55

Q: Which “ABTS [CEAC]” value [1] does the source give for COc1cc(C2Oc3cc(-c4oc5c(Br)c(O)cc(O)c5c(=O)c4O)ccc3OC2CO)ccc1O (centres unmarked) [compound 16, 8-bromo-2,3-dehydrosilybin AB] here?
A: 1.15 ± 0.03 CEAC

Q: And the “FCR [GAE]” value [2]?
A: 1.56 ± 0.03 GAE

Q: What about the IC50 [3] of the same molecule?
A: 87 ± 2.5 µM

Q: And the “Effect on viability in combination with chloramphenicol” value [4]?
A: -

Q: What about the “Effect on viability in combination with gentamicin” value [4] of the same molecule?
A: -

Q: What about the IC50 [5] of the same molecule?
A: 16.9 ± 0.6 µM

Q: And the IC50 [6]?
A: 39.4 ± 3.4 µM

Q: What about the “SI (selectivity index)” value [6] of the same molecule?
A: 0.43

Q: Which “ABTS [CEAC]” value [1] does the source give for COc1cc([C@@H]2Oc3c(O)cc(-c4oc5c(Br)c(O)cc(O)c5c(=O)c4O)cc3[C@H]2CO)ccc1O [compound 18, 8-Bromo-2,3-dehydrosilychristin A] here?
A: 1.41 CEAC

Q: And the “FCR [GAE]” value [2]?
A: 2.22 GAE

Q: And the IC50 [3]?
A: 23 ± 0.2 µM

Q: And the “Effect on viability in combination with chloramphenicol” value [4]?
A: -

Q: What about the “Effect on viability in combination with gentamicin” value [4] of the same molecule?
A: -

Q: What about the IC50 [5] of the same molecule?
A: 66.7 ± 5.6 µM

Q: What about the IC50 [6] of the same molecule?
A: 209 µM

Q: And the “SI (selectivity index)” value [6]?
A: 0.32

Q: Which results are given for COc1cc([C@H]2Oc3cc([C@H]4Oc5c(Br)c(O)c(Br)c(O)c5C(=O)[C@@H]4O)ccc3O[C@@H]2CO)cc(Br)c1O [compound 21, 6,8,21-tribromosilybin A]?
A: ABTS [CEAC] [1]: 0.12 ± 0.02 CEAC; FCR [GAE] [2]: 0.99 ± 0.02 GAE; IC50 [3]: > 200 µM; Effect on viability in combination with chloramphenicol [4]: -; Effect on viability in combination with gentamicin [4]: reversion of resistance; Gentamicin-resistant phenotype of S. aureus (result in words) [4]: reversed the resistant phenotype to a sensitive one; also recorded: revert the resistant phenotype into a sensitive one; IC50 [5]: 75 ± 2.4 µM; IC50 [6]: 201 µM; SI (selectivity index) [6]: 0.37

Q: Which results are given for COc1cc([C@@H]2Oc3cc([C@H]4Oc5c(Br)c(O)c(Br)c(O)c5C(=O)[C@@H]4O)ccc3O[C@H]2CO)cc(Br)c1O [compound 22, 6,8,21-tribromosilybin B]?
A: ABTS [CEAC] [1]: 0.17 ± 0.01 CEAC; FCR [GAE] [2]: 1.01 ± 0.04 GAE; IC50 [3]: 34.4 ± 1.8 µM; Effect on viability in combination with chloramphenicol [4]: -; Effect on viability in combination with gentamicin [4]: reversion of resistance; Gentamicin-resistant phenotype of S. aureus (result in words) [4]: reversed the resistant phenotype to a sensitive one; also recorded: revert the resistant phenotype into a sensitive one; IC50 [5]: 85.8 ± 1.1 µM; IC50 [6]: 183 µM; SI (selectivity index) [6]: 0.47
